Data set [1] deals with mice. The data set can be described thus: GTT (glucose tolerance test), diabetes improving effect. It counts as in vivo. Particulars: oral pre-treatment 78 days. Here is the method: GTT (glucose tolerance test) was performed to confirm the diabetes improving effect of the compound of the present invention. Glucose (1.5 g/Kg) was intra-abdominally administered to the mice pre-treated orally with samples for 78 days. Blood glucose was measured every hour. Fasting blood glucose was lower in the group treated with the compound of the present invention than in the group treated with vehicle or GW501516.

The test system of data set [2] is C57BL/6 mice. Description: Hyperlipidemia improving effect, blood HDL level. Particulars: 10 mg/kg/day oral, high fat feeds, 6 weeks, serum. It counts as in vivo. Here is the method: In vivo animal test using C57BL/6 (SLC Co.) mice at 6 weeks was performed to confirm the hyperlipidemia improving effect of the compound of the present invention. […] 6 weeks later, blood was taken from orbital veins. Serum was separated and blood HDL level was measured by biochemical method.

The target in a further data set is T1, PPARδ (Homo sapiens, UniProt Q03181).
T1 sequence (Q03181 1-441): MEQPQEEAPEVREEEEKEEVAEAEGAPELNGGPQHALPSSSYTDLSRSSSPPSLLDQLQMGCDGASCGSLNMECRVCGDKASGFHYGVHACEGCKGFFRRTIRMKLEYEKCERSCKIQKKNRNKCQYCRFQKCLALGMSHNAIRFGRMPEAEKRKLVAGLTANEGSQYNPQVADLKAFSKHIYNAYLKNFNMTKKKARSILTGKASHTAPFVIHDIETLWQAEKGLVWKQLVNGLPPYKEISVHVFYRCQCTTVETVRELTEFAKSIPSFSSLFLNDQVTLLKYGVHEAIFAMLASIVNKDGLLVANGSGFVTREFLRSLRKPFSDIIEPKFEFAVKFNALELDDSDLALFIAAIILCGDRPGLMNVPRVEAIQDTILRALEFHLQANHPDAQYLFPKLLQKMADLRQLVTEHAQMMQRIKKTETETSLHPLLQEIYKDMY
Description: Transfection assay (luciferase reporter) in CV-1 cells, PPARδ. It counts as cell-based. Also noted: Full length PPARs plasmid DNA, reporter DNA confirming PPARs activity owing to its luciferase activity; expressed in transfected cells; host or cells: CV-1 cells. Here is the method: The PPARδ activities of the R-form compound represented by formula 1 of the present invention and the S-form compound represented by formula 2 were measured by transfection assay. In addition, the selectivity to PPAR subtypes, PPARα and PPARγ, was examined. Cytotoxicity was tested by MTT assay and in vivo activity and toxicity was investigated by animal experiment using mice.
CV-1 cells were used in this assay. The cells were inoculated in a 96-well plate containing DMEM supplemented with 10% FBS, DBS (delipidated) and 1% penicillin/streptomycin and cultured in a 37 °C, 5% CO2 incubator. The experiment was performed according to the steps of inoculation, transfection, sample treatment and confirmation. Particularly, CV-1 cells were inoculated in a 96 well-plate (5000 cells/well), followed by transfection 24 hours later. Full length PPARs plasmid DNA, reporter DNA confirming PPARs activity owing to its luciferase activity, β-galactosidase DNA providing information on transfection efficiency, and transfection reagent were used for the transfection. The compounds of formula 1 and formula 2 were dissolved in dimethylsulfoxide (DMSO), which were treated to the cells via media at different concentrations. After culturing the cells in the incubator for 24 hours, the cells were lysed by using lysis buffer. Luciferase activity and β-galactosidaseactivity were measured with Luminometer and a microplate reader. The obtained values of luciferase were modified by the values of β-galactosidase. A graph was made with those values and EC50 was calculated.
On the technique in general: In a reporter assay the amount or activity of a reporter protein is the signal.

Another data set deals with CV-1 cells. Description: MTT assay, cytotoxicity. It counts as cell-based. The conditions noted are these: 24 hours, even at the concentration of 100,000 times the EC50 value. On the procedure:
MTT assay was performed to test cytotoxicity of the compounds of the present invention. MTT is a yellow substance soluble in water, but when it is introduced into a living cell, it turns into a purple insoluble crystal by dehydrogenase in mitochondria. Cytotoxicity can be confirmed by measuring OD550 after dissolving MTT in dimethylsulfoxide. The experiment was performed as follows.
CV-1 cells were inoculated in a 96-well plate (5000 cells/well). The cells were cultured in a 37[…] 5% CO2 incubator for 24 hours, and treated with the compounds of formula 1 and formula 2 at different concentrations. Then, the cells were cultured for 24 hours again, to which MTT reagent was added. After culturing for 15 minutes, the generated purple crystals were dissolved in dimethylsulfoxide. Optical density was measured with a microplate reader to confirm cytotoxicity.

Data set [3] deals with C57BL/6 mice. Description: Reproductive toxicity test. It is filed as in vivo. On the procedure:
(§1) Acute toxicity and reproductive toxicity tests were performed using mice to evaluate the toxicity of the compound of the present invention. The compound of formula 1 was orally administered to ICR mice at 6 weeks at the dosage of 50 mg/kg, 300 mg/kg and 2000 mg/kg, followed by observation on toxicity for 14 days. […] The result of reproductive toxicity test using C57BL/6 mice was also consistent with the above, which is no toxicity caused by the compound of formula 1 was observed. After oral-administration of the compound to the pregnant female mice, weight gain and growth speed of fetus were investigated.

Data set [4] has as its system mice. Description: Morris water maze test, treatment in pregnancy and lactation. It is filed as in vivo. The conditions noted are these: 10 mg/kg oral to pregnant mice, control 24.2 sec. On the procedure: An animal test was performed to investigate the therapeutic effect of the compound of the present invention on dementia and Parkinson's disease based on the memory improving effect thereof. To confirm the effect of the compound of the present invention in the period of brain development, the compound was orally administered to pregnant mice at the concentration of 10 mg/kg in the periods of pregnancy and lactation. Morris water maze test was performed to detect any changes of the brain functions of the treatment group and the control group.

For another data set, the system named is ICR mice. Description: Acute toxicity test. It counts as in vivo. Particulars: oral, up to 2000 mg/kg, 14 days. On the procedure: as §1

From patent US8431715B2, “Thiazole compound (as PPARδ) ligand and pharmaceutical, cosmetic and health food comprised thereof” (Seoul National University Industry Foundation, priority 2007, dated 2013) come the findings set out here.

The EC50 is the concentration that produces a half-maximal response. As to `Cc1cc(S[C@H](Cc2ccccc2)c2sc(-c3ccc(C(F)(F)F)cc3)nc2C)ccc1OCC(=O)O` (racemic) [formula 1], the “time of rapid blood glucose decrease” value in the data set on mice [1] (glucose 1.5 g/Kg intra-abdominal) was 20 to 40 min. Further, the fasting blood glucose entry with mice [1] (compared with vehicle or GW501516 group) is recorded as “lower”. Further, the “HDL level increase compared with the control” value in the data set with C57BL/6 mice [2] is recorded as 44.6%. At PPARδ (CV-1 cells, 24 hours treatment), this molecule came in with an EC50 of 0.6 nM. Besides, the “activity of R-isomer compared with S-isomer (formula 2)” value on PPARδ (PPARδ) is reported as 10 times. In addition, the “selectivity to PPARα and PPARγ” value on PPARδ (PPARδ versus PPARα and PPARγ) is reported as 100,000 times. Also, the cytotoxicity entry in the data set with CV-1 cells is listed as “not to have cytotoxicity”. Further, in the data set with C57BL/6 mice [3] (mouse, in vivo, po), the “bone development and disease related matters” value is given as “no changes”; the “weight gain and growth speed of fetus” value is “no significant difference”. In addition, the reproductive toxicity result in the data set with C57BL/6 mice [3] (oral, pregnant female mice) was “no toxicity”. In addition, in the data set with mice [4], the “average time spent to find the platform” value turned out to be 6.8 s. Moreover, the “changes on weight and feed taking” value in the data set on ICR mice was “no significant changes”.
